Reference: US20230111310A1, “CARBOXYLIC ACID DERIVATIVE-SUBSTITUTED IMINO ARYL COMPOUND, PREPARATION METHOD THEREFOR, HERBICIDAL COMPOSITION AND USE THEREOF” (Qingdao Kingagroot Chemical Compound Co., Ltd., priority 2020, published 2023)

Legend:
Experiment in all cases: Weeding effect in post-emergence stage
Type in all cases: in vivo
Abutilon theophrasti = details: for Weeding effect in post-emergence stage, Abutilon theophrasti (level): fresh weight control rate level; for Weeding effect in post-emergence stage, Abutilon theophrasti: level of fresh weight growth control rate
In short: (§1)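 Compound, dissolved in acetone and diluted in water with Tween 80 plus methyl oleate EC (1.5 liter/ha), is sprayed onto 2-3 leaf potted plants. Rates span 7.5–500 g/ha. After 3 weeks of greenhouse culture, weeding effect is counted as the mean of triplicates.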

Alopecurus japonicus = details: for Weeding effect in post-emergence stage, Alopecurus japonicus (level): fresh weight control rate level; for Weeding effect in post-emergence stage, Alopecurus japonicus: level of fresh weight growth control rate
In short: as §1

Digitaria sanguinalis = details: for Weeding effect in post-emergence stage, Digitaria sanguinalis (level): fresh weight control rate level; for Weeding effect in post-emergence stage, Digitaria sanguinalis: level of fresh weight growth control rate
In short: as §1

Eleusine indica = details: for Weeding effect in post-emergence stage, Eleusine indica (level): fresh weight control rate level; for Weeding effect in post-emergence stage, Eleusine indica: level of fresh weight growth control rate
In short: as §1

Setaria viridis = details: for Weeding effect in post-emergence stage, Setaria viridis (level): fresh weight control rate level; for Weeding effect in post-emergence stage, Setaria viridis: level of fresh weight growth control rate
In short: as §1

Echinochloa crusgalli = details: for Weeding effect in post-emergence stage, Echinochloa crusgalli (level): fresh weight control rate level; for Weeding effect in post-emergence stage, Echinochloa crusgalli: level of fresh weight growth control rate
In short: as §1

Compound | Weeding effect in post-emergence stage, Abutilon theophrasti (Abutilon theophrasti; Dose 15 g/ha) | Weeding effect in post-emergence stage, Alopecurus japonicus (Alopecurus japonicus; Dose 15 g/ha) | Weeding effect in post-emergence stage, Digitaria sanguinalis (Digitaria sanguinalis; Dose 15 g/ha) | Weeding effect in post-emergence stage, Eleusine indica (Eleusine indica; Dose 15 g/ha) | Weeding effect in post-emergence stage, Setaria viridis (Setaria viridis; Dose 15 g/ha) | Weeding effect in post-emergence stage, Echinochloa crusgalli (Echinochloa crusgalli; Dose 15 g/ha) | Weeding effect in post-emergence stage, Abutilon theophrasti (level) (Abutilon theophrasti; Dose 15 g/ha) | Weeding effect in post-emergence stage, Alopecurus japonicus (level) (Alopecurus japonicus; Dose 15 g/ha) | Weeding effect in post-emergence stage, Digitaria sanguinalis (level) (Digitaria sanguinalis; Dose 15 g/ha) | Weeding effect in post-emergence stage, Eleusine indica (level) (Eleusine indica; Dose 15 g/ha) | Weeding effect in post-emergence stage, Setaria viridis (level) (Setaria viridis; Dose 15 g/ha) | Weeding effect in post-emergence stage, Echinochloa crusgalli (level) (Echinochloa crusgalli; Dose 15 g/ha) | further results
C[C@@H](O/N=C/c1cc(-n2c(=O)cc(C(F)(F)F)n(C)c2=O)c(F)cc1Cl)C(=O)N1CCOCC1 [454(R)] | – | – | – | – | – | – | – | – | – | – | – | – | Weeding effect in post-emergence stage, Abutilon theophrasti (level) (Abutilon theophrasti; Dose 60 g/ha): 5 (Level 5: growth control rate is above 85%); Weeding effect in post-emergence stage, Alopecurus japonicus (level) (Alopecurus japonicus; Dose 60 g/ha): 5 (Level 5: growth control rate is above 85%); Weeding effect in post-emergence stage, Digitaria sanguinalis (level) (Digitaria sanguinalis; Dose 60 g/ha): 5 (Level 5: growth control rate is above 85%); Weeding effect in post-emergence stage, Eleusine indica (level) (Eleusine indica; Dose 60 g/ha): 5 (Level 5: growth control rate is above 85%); Weeding effect in post-emergence stage, Setaria viridis (level) (Setaria viridis; Dose 60 g/ha): 5 (Level 5: growth control rate is above 85%); Weeding effect in post-emergence stage, Echinochloa crusgalli (level) (Echinochloa crusgalli; Dose 60 g/ha): 5 (Level 5: growth control rate is above 85%)
Cc1cc(C)n(C(=O)C(C)O/N=C/c2cc(-n3c(=O)cc(C(F)(F)F)n(C)c3=O)c(F)cc2Cl)n1 (stereo not drawn) [Compound 424] | – | – | – | – | – | – | – | – | – | – | – | – | Weeding effect in post-emergence stage, Abutilon theophrasti (level) (Abutilon theophrasti; Dose 30 g/ha): 5 (Level 5: growth control rate is above 85%); Weeding effect in post-emergence stage, Alopecurus japonicus (level) (Alopecurus japonicus; Dose 30 g/ha): 5 (Level 5: growth control rate is above 85%); Weeding effect in post-emergence stage, Digitaria sanguinalis (level) (Digitaria sanguinalis; Dose 30 g/ha): 5 (Level 5: growth control rate is above 85%); Weeding effect in post-emergence stage, Eleusine indica (level) (Eleusine indica; Dose 30 g/ha): 5 (Level 5: growth control rate is above 85%); Weeding effect in post-emergence stage, Setaria viridis (level) (Setaria viridis; Dose 30 g/ha): 5 (Level 5: growth control rate is above 85%); Weeding effect in post-emergence stage, Echinochloa crusgalli (level) (Echinochloa crusgalli; Dose 30 g/ha): 5 (Level 5: growth control rate is above 85%)
CC(O/N=C/c1cc(-n2c(=O)cc(C(F)(F)F)n(C)c2=O)c(F)cc1Cl)C(=O)OCC1CCCO1 (stereo not drawn) [Compound 264] | 5 (Level 5: growth control rate is above 85%) | 5 (Level 5: growth control rate is above 85%) | 5 (Level 5: growth control rate is above 85%) | 5 (Level 5: growth control rate is above 85%) | 5 (Level 5: growth control rate is above 85%) | 5 (Level 5: growth control rate is above 85%) | – | – | – | – | – | – | –
COC(=O)[C@@H](C)O/N=C/c1cc(-n2c(=S)cc(C(F)(F)F)n(C)c2=S)c(F)cc1C#N [390(R)] | – | – | – | – | – | – | 5 (Level 5: growth control rate is above 85%) | 5 (Level 5: growth control rate is above 85%) | 5 (Level 5: growth control rate is above 85%) | 5 (Level 5: growth control rate is above 85%) | 5 (Level 5: growth control rate is above 85%) | 5 (Level 5: growth control rate is above 85%) | –
CC(=NOC(=O)C(C)ON=Cc1cc(-n2c(=O)cc(C(F)(F)F)n(C)c2=O)c(F)cc1Cl)C(C)(C)C (stereo not drawn) [Compound 449] | – | – | – | – | – | – | 5 (Level 5: growth control rate is above 85%) | 5 (Level 5: growth control rate is above 85%) | 5 (Level 5: growth control rate is above 85%) | 5 (Level 5: growth control rate is above 85%) | 5 (Level 5: growth control rate is above 85%) | 5 (Level 5: growth control rate is above 85%) | –
CC(C)COC(=O)C(C)O/N=C/c1cc(-n2c(=O)cc(C(F)(F)F)n(C)c2=O)c(F)cc1Cl (racemic) [Compound 201] | 5 (Level 5: growth control rate is above 85%) | 5 (Level 5: growth control rate is above 85%) | 5 (Level 5: growth control rate is above 85%) | 5 (Level 5: growth control rate is above 85%) | 5 (Level 5: growth control rate is above 85%) | 5 (Level 5: growth control rate is above 85%) | – | – | – | – | – | – | –
COC(=O)[C@@H](C)O/N=C/c1cc(-n2c(=O)cc(C(F)(F)F)n(C)c2=S)c(F)cc1C#N [396(R)] | – | – | – | – | – | – | – | – | – | – | – | – | Weeding effect in post-emergence stage, Abutilon theophrasti (level) (Abutilon theophrasti; Dose 60 g/ha): 5 (Level 5: growth control rate is above 85%); Weeding effect in post-emergence stage, Alopecurus japonicus (level) (Alopecurus japonicus; Dose 60 g/ha): 5 (Level 5: growth control rate is above 85%); Weeding effect in post-emergence stage, Digitaria sanguinalis (level) (Digitaria sanguinalis; Dose 60 g/ha): 5 (Level 5: growth control rate is above 85%); Weeding effect in post-emergence stage, Eleusine indica (level) (Eleusine indica; Dose 60 g/ha): 5 (Level 5: growth control rate is above 85%); Weeding effect in post-emergence stage, Setaria viridis (level) (Setaria viridis; Dose 60 g/ha): 5 (Level 5: growth control rate is above 85%); Weeding effect in post-emergence stage, Echinochloa crusgalli (level) (Echinochloa crusgalli; Dose 60 g/ha): 5 (Level 5: growth control rate is above 85%)
CCO[C@H](O/N=C/c1cc(-n2c(=O)cc(C(F)(F)F)n(C)c2=O)c(F)cc1Cl)C(=O)OC [331(R)] | 5 (Level 5: growth control rate is above 85%) | 5 (Level 5: growth control rate is above 85%) | 5 (Level 5: growth control rate is above 85%) | 5 (Level 5: growth control rate is above 85%) | 5 (Level 5: growth control rate is above 85%) | 5 (Level 5: growth control rate is above 85%) | – | – | – | – | – | – | –
COC(=O)C(C)O/N=C/c1cc(-n2c(=O)n(C)c(=O)n(C)c2=O)c(F)cc1Cl (racemic) [Compound 164] | 5 (Level 5: growth control rate is above 85%) | 5 (Level 5: growth control rate is above 85%) | 5 (Level 5: growth control rate is above 85%) | 5 (Level 5: growth control rate is above 85%) | 5 (Level 5: growth control rate is above 85%) | 5 (Level 5: growth control rate is above 85%) | – | – | – | – | – | – | –
CC(O/N=C/c1cc(-n2c(=O)cc(C(F)(F)F)n(C)c2=O)c(F)cc1Cl)C(=O)N1CCOCC1 (stereo not drawn) [Compound 454] | – | – | – | – | – | – | – | – | – | – | – | – | Weeding effect in post-emergence stage, Abutilon theophrasti (level) (Abutilon theophrasti; Dose 60 g/ha): 5 (Level 5: growth control rate is above 85%); Weeding effect in post-emergence stage, Alopecurus japonicus (level) (Alopecurus japonicus; Dose 60 g/ha): 5 (Level 5: growth control rate is above 85%); Weeding effect in post-emergence stage, Digitaria sanguinalis (level) (Digitaria sanguinalis; Dose 60 g/ha): 5 (Level 5: growth control rate is above 85%); Weeding effect in post-emergence stage, Eleusine indica (level) (Eleusine indica; Dose 60 g/ha): 5 (Level 5: growth control rate is above 85%); Weeding effect in post-emergence stage, Setaria viridis (level) (Setaria viridis; Dose 60 g/ha): 5 (Level 5: growth control rate is above 85%); Weeding effect in post-emergence stage, Echinochloa crusgalli (level) (Echinochloa crusgalli; Dose 60 g/ha): 5 (Level 5: growth control rate is above 85%)
COC(=O)C(OC)O/N=C/c1cc(-n2c(=O)cc(C(F)(F)F)n(C(OC)C(=O)OC)c2=O)c(F)cc1Cl (stereo not drawn) [Compound 493] | – | – | – | – | – | – | 5 (Level 5: growth control rate is above 85%) | 5 (Level 5: growth control rate is above 85%) | 5 (Level 5: growth control rate is above 85%) | 5 (Level 5: growth control rate is above 85%) | 5 (Level 5: growth control rate is above 85%) | 5 (Level 5: growth control rate is above 85%) | –
CCOC(=O)[C@@H](C)O/N=C/c1cc(-n2c(=O)n(C)c(=S)n(C)c2=O)c(F)cc1Cl [3(R)] | 5 (Level 5: growth control rate is above 85%) | 4 (Level 4: growth control rate is greater than or equal to 60% and less than 85%) | 5 (Level 5: growth control rate is above 85%) | 5 (Level 5: growth control rate is above 85%) | 5 (Level 5: growth control rate is above 85%) | 5 (Level 5: growth control rate is above 85%) | – | – | – | – | – | – | –
COC(=O)C(C)O/N=C/c1cc(-n2c(=S)cc(C(F)(F)F)n(C)c2=O)c(F)cc1Br (racemic) [Compound 388] | – | – | – | – | – | – | 5 (Level 5: growth control rate is above 85%) | 4 (Level 4: growth control rate is greater than or equal to 60% and less than 85%) | 5 (Level 5: growth control rate is above 85%) | 5 (Level 5: growth control rate is above 85%) | 5 (Level 5: growth control rate is above 85%) | 5 (Level 5: growth control rate is above 85%) | –
